In one test the target is T1, KCC4 (Homo sapiens, UniProt Q9Y666).
T1 construct: expressed in transfected cells; host or cells: HEK-293
T1 sequence (Q9Y666 1-1083): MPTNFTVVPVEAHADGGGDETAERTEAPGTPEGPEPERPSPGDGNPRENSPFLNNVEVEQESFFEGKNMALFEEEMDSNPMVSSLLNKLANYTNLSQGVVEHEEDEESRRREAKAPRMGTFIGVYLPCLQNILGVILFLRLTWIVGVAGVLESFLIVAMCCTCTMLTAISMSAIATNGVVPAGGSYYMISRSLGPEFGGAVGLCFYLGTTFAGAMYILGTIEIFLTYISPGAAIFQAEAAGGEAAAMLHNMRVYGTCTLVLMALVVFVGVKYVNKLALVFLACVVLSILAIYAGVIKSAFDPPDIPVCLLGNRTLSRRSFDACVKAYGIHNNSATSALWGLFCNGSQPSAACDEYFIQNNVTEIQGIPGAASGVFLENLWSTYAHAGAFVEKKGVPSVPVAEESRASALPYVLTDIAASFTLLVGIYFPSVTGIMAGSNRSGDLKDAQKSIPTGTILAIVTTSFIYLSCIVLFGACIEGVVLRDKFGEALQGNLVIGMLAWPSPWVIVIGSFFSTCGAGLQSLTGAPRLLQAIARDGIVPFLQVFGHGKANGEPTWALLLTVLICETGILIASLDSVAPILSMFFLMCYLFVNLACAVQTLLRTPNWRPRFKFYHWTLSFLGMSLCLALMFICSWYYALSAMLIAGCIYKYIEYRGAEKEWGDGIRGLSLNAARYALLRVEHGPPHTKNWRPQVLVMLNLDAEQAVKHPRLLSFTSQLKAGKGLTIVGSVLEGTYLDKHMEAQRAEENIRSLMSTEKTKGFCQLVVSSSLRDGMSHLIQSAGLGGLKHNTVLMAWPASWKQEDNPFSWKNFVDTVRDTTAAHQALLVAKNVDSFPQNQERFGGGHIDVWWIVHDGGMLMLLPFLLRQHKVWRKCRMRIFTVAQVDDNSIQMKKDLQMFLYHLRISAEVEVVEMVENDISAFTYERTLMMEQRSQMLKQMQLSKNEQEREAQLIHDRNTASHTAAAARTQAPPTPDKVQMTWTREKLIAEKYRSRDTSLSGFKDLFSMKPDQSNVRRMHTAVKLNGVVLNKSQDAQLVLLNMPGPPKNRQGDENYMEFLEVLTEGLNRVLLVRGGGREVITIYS
The test is described as follows: Tl+ flux assay, HEK-293 cells expressing KCC4. It is filed as cell-based. To be noted: read-out: concentration at which effects on KCC4 were seen (EC50, FIG. 1G). The procedure: (§1) FLIPR TI Flux assay. HEK-293 cells were washed with HBSS, and then incubated with loading buffer containing TI sensitive fluorescent dye (https://www.moleculardevices.com), 20 μM bumetanide 20 μM ouabain and 2.5 mM probenecid for 1 h at room temperature (RT) under control conditions or with drugs in the dark using a FlexStation 3 microplate reader (Molecular Devices) and imaged […] for 30 min. Stimulus buffer was added containing 5 mM K^+/0.5 mM Tl^+ and cells were imaged every 1.5 over a 190 second time course The initial rate Tl^+ uptake (Relative Fluorescence Units (RFU) per second) was determined following addition of the stimulus buffer as outlined previously (Conway et al., 2017, supra) (Lee et al., 2022, supra).
(§2) Several studies have shown that the activity and plasma membrane accumulation of KCC2 is potentiated via phosphorylation of S940, a process mediated by the activity of protein kinase C and protein phosphatase 1 (Lee et al, 2011, supra; Lee et al., J Biol Chem 282, 29777-29784 (2007); Moore et al., Proc. Natl. Acad. Sci. U.S.A 115, 10166-10171 (2018); Moore et al., Trends Neurosci. 40, 555-571 (2017); Silayeva et al., Proc. Natl. Acad. Sci. U.S.A. 112, 3523-3528 (2015)). […] Compared to KCC2, effects on KCC3, KCC4, and NKCC1 were only seen at concentrations more than 35-fold that of KCC2 (>100 μM) (FIG. 1G).

The next test has as its target T2, KCC2-S940A (Homo sapiens, UniProt Q9H2X9, S963A).
T2 construct: expressed in transfected cells; host or cells: HEK-293
T2 sequence (Q9H2X9 1-1116 isoform Q9H2X9-2 S940A): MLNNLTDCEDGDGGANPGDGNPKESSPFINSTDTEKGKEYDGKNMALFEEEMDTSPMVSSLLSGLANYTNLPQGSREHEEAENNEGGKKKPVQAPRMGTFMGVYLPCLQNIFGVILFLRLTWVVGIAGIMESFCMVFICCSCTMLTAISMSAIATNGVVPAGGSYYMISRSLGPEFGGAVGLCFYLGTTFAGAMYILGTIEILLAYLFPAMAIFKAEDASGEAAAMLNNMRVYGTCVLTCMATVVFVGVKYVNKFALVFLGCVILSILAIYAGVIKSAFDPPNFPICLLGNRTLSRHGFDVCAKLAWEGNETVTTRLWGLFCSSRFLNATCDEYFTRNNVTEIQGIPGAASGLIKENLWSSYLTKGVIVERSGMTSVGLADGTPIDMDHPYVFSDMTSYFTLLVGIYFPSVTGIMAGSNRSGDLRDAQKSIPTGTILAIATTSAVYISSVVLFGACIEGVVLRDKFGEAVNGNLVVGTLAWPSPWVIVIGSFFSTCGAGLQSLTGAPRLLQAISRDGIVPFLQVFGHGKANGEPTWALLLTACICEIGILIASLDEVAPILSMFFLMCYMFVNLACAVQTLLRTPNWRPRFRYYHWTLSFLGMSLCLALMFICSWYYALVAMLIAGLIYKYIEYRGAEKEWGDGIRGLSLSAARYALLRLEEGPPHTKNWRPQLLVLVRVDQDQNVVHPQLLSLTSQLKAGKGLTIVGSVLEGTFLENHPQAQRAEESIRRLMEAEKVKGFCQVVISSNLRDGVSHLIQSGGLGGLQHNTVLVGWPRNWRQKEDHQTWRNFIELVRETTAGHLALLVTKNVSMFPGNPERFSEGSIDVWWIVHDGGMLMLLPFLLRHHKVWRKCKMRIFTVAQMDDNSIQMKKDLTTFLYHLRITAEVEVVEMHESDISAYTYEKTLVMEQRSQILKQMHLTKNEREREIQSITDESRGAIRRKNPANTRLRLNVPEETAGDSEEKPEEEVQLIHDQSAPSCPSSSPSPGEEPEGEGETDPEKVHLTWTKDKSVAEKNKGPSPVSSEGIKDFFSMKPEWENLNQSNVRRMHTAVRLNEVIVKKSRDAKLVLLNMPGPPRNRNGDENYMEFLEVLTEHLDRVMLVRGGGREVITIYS
Nature of the test: Tl+ flux assay, KCC2-S940A construct in HEK-293 cells. It is filed as cell-based. The procedure:
as §1, §2

In the case of `C[C@@H]1CN(c2nc3c(c(Nc4ccc(C5CCCCC5)cc4)n2)COC3)CCO1` [Compound A, (R)—N-(4-cyclohexylphenyl)-2-(2-methylmorpholino)-5,7-dihydrofuro[3,4-d]pyrimidin-4-amine], on KCC4, the EC50 is above 100 µM. Besides, the “activity of KCC2-S940A construct” value at KCC2-S940A is “increased the activity”.
